Measurements reported in the NIST ThermoML archive (doi:10.1016/j.jct.2015.11.007).
± gives the expanded uncertainty stated by the source.

Columns and labels:
[1] = Molar enthalpy of transition or fusion; conditions: Crystal; DSC
[2] = Crystal; DTA

With `NC(=O)CN1CC(O)CC1=O` (configuration not stated) [4-hydroxy-2-oxo-1-pyrrolidineacetamide] the “Molar enthalpy of transition or fusion” value [1] was 8.29 ± 0.335 kcal/mol and the Normal melting temperature [2] was 172.13 ± 0.61 °C.
